Results: DBAASP
Converted amounts (≈) assume the structure as drawn. “And” between values parts separate entries of the source, which are not always exact repeats. Identical values can stand only once.

How the values were obtained:
Experiment in all cases: ≥ marks a high value that may be exact or a test limit, other limits are often not marked, values filed in µg/mL are converted to µM
[1] = system: Candida albicans ATCC 2002
[2] = system: Staphylococcus aureus ATCC 2592
[3] = system: Escherichia coli ATCC 25922
[4] = system: Pseudomonas aeruginosa ATCC 9027
Pseudomonas aeruginosa = system: Pseudomonas aeruginosa
Escherichia coli B = system: Escherichia coli B
Staphylococcus aureus = system: Staphylococcus aureus
Bacillus subtilis 168 = system: Bacillus subtilis 168
Escherichia coli JW0013 = system: Escherichia coli JW0013
[5] = system: Staphylococcus epidermidis ATCC 12228
[6] = system: Salmonella enterica subsp. enterica serovar Typhimurium C77-31
Escherichia coli UB1005 = system: Escherichia coli UB1005
[7] = system: Enterococcus faecalis ATCC 29212
[8] = system: Staphylococcus aureus ATCC 29213
Bacillus subtilis = system: Bacillus subtilis
Escherichia coli = system: Escherichia coli
Acinetobacter baumannii = system: Acinetobacter baumannii
[9] = system: Staphylococcus aureus ATCC 25923

SMILES | MIC [1] [µM] | MIC [2] [µM] | MIC [3] | MIC (Pseudomonas aeruginosa) [µM] | MIC (Staphylococcus aureus) [µM] | further results
CC[C@H](C)[C@H](NC(=O)[C@H](CCCN=C(N)N)NC(=O)[C@@H](NC(=O)[C@@H]1CCCN1C(=O)[C@@H](NC(=O)[C@@H](NC(=O)[C@H](CCC(N)=O)NC(=O)[C@@H]1CCCN1C(=O)[C@@H](NC(=O)[C@@H](NC(=O)[C@H](Cc1cnc[nH]1)NC(=O)[C@@H]1CCCN1C(=O)[C@@H]1CCCN1C(=O)[C@@H](NC(=O)CNC(=O)[C@H](Cc1c[nH]c2ccccc12)NC(=O)[C@H](C)NC(=O)[C@H](CCCCN)NC(=O)[C@H](C)N)[C@@H](C)CC)C(C)C)[C@@H](C)CC)[C@@H](C)CC)C(C)C)C(C)C)C(=O)N[C@@H](CCCN=C(N)N)C(=O)N1CCC[C@H]1C(=O)N[C@@H](CC(C)C)C(=O)NCC(=O)NCC(=O)N[C@@H](CC(N)=O)C(=O)N[C@H](C(=O)O)C(C)C [AKAWGIPPHVIPQIVPVRIRPLGGNV] | 8.98 (≈ 25 µg/mL) | 1.15 (≈ 3.2 µg/mL) | 8.98 µM (≈ 25 µg/mL) |  |  | 
CC(C)C[C@H](NC(=O)[C@H](CC(C)C)NC(=O)[C@H](Cc1ccccc1)NC(=O)[C@@H]1CCCN1C(=O)[C@H](CC(C)C)NC(=O)[C@@H](N)Cc1ccccc1)C(=O)N[C@@H](CO)C(=O)N[C@@H](C)C(=O)N[C@@H](CC(C)C)C(=O)N1CCC[C@H]1C(=O)N[C@@H](CCCCN)C(=O)N[C@H](C(=O)N[C@@H](Cc1ccccc1)C(=O)N[C@H]1CSSC[C@@H](C(=O)O)NC(=O)[C@H](CCCCN)NC(=O)[C@H](CCCCN)NC(=O)[C@H](CO)NC(=O)[C@H](Cc2ccccc2)NC(=O)[C@H](Cc2ccccc2)NC1=O)C(C)C [FLPFLLSALPKVFCFFSKKC] | ≥ 43 | 8 (≈ 18.7 µg/mL) | 16 µM (≈ 37.3 µg/mL) |  |  | MIC [4]: 32 µM (≈ 74.7 µg/mL)
CC[C@H](C)[C@H](NC(=O)[C@@H]1CCCN1C(=O)[C@H](CCCN=C(N)N)NC(=O)[C@@H]1CCCN1C(=O)[C@@H](NC(=O)[C@@H]1CCCN1C(=O)[C@H](CC(C)C)NC(=O)[C@@H](N)Cc1ccccc1)[C@@H](C)CC)C(=O)N[C@@H](CC(C)C)C(=O)N[C@@H](CC(C)C)C(=O)NCC(=O)N[C@@H](CC(C)C)C(=O)N[C@@H](CC(C)C)C(N)=O [FLPIPRPILLGLL] | 17.1 (≈ 25 µg/mL) | 6.84 (≈ 9.99 µg/mL) | 20.5 µM (≈ 30 µg/mL) |  |  | 
CSCC[C@H](NC(=O)[C@@H](NC(=O)[C@H](CCCCN)NC(=O)[C@H](Cc1cnc[nH]1)NC(=O)[C@H](CC(C)C)NC(=O)CN)C(C)C)C(=O)N[C@@H](CCCN=C(N)N)C(=O)N[C@@H](CCC(=O)O)C(=O)N[C@H](C(=O)N[C@@H](CC(C)C)C(=O)NCC(=O)N[C@@H](Cc1ccc(O)cc1)C(=O)N[C@@H](CCC(=O)O)C(=O)N[C@@H](CCCN=C(N)N)C(=O)N[C@@H](CC(N)=O)C(=O)N[C@@H](CO)C(=O)N[C@@H](Cc1ccc(O)cc1)C(=O)N[C@@H](CCCCN)C(=O)N[C@@H](CCCCN)C(=O)N[C@@H](Cc1ccccc1)C(=O)N[C@@H](Cc1ccccc1)C(=O)N[C@@H](CC(C)C)C(=O)N[C@@H](CCCN=C(N)N)C(=O)O)C(C)C [GLHKVMREVLGYERNSYKKFFLR] | 2.61 (≈ 7.5 µg/mL) | 1.29 (≈ 3.7 µg/mL) | 10.4 µM (≈ 30 µg/mL) |  |  | 
CC[C@H](C)[C@H](NC(=O)[C@H](CC(C)C)NC(=O)[C@H](CCCCN)NC(=O)CNC(=O)[C@H](CC(C)C)NC(=O)[C@@H](NC(=O)[C@H](CCCCN)NC(=O)[C@H](CO)NC(=O)[C@H](Cc1c[nH]c2ccccc12)NC(=O)[C@H](CCSC)NC(=O)CN)[C@@H](C)CC)C(=O)N[C@@H](CCCN=C(N)N)C(N)=O [GMWSKILGKLIR] |  |  |  | 26.3 (≈ 36.8 µg/mL) | 9.2 (≈ 12.9 µg/mL) | MIC (Escherichia coli B): 3.7 µM (≈ 5.18 µg/mL); MIC (Bacillus subtilis 168): 0.9 µM (≈ 1.26 µg/mL)
CC[C@H](C)[C@H](NC(=O)[C@H](CC(C)C)NC(=O)[C@@H]1CCCN1C(=O)CNC(=O)[C@H](CC(C)C)NC(=O)[C@@H](NC(=O)[C@H](CCCCN)NC(=O)[C@H](CO)NC(=O)[C@H](Cc1c[nH]c2ccccc12)NC(=O)[C@H](CCSC)NC(=O)CN)[C@@H](C)CC)C(=O)N[C@@H](CCCN=C(N)N)C(N)=O [GMWSKILGPLIR] |  |  |  | > 100 | > 100 | MIC (Escherichia coli B): 30 µM (≈ 41.1 µg/mL); MIC (Bacillus subtilis 168): 3.6 µM (≈ 4.93 µg/mL)
CC[C@H](C)[C@H](NC(=O)[C@H](CC(C)C)NC(=O)[C@H](Cc1cnc[nH]1)NC(=O)CNC(=O)[C@H](CC(C)C)NC(=O)[C@@H](NC(=O)[C@H](CCCCN)NC(=O)[C@H](CO)NC(=O)[C@H](Cc1c[nH]c2ccccc12)NC(=O)[C@@H](N)CCSC)[C@@H](C)CC)C(=O)N[C@@H](CCCN=C(N)N)C(N)=O [MWSKILGHLIR] |  |  |  | > 100 | 45 (≈ 60.9 µg/mL) | MIC (Escherichia coli B): ≥ 50 µM; MIC (Bacillus subtilis 168): 5 µM (≈ 6.76 µg/mL)
CC[C@H](C)[C@H](NC(=O)[C@H](CCCN=C(N)N)NC(=O)[C@H](CCCN=C(N)N)NC(=O)[C@@H]1CCCN1C(=O)[C@@H]1CCCN1C(=O)[C@H](CCCN=C(N)N)NC(=O)[C@@H]1CCCN1C(=O)[C@H](CCCN=C(N)N)NC(=O)[C@@H]1CCCN1C(=O)[C@H](CC(C)C)NC(=O)[C@H](Cc1ccc(O)cc1)NC(=O)[C@@H]1CCCN1C(=O)[C@@H]1CCCN1C(=O)[C@H](CCCCN)NC(=O)[C@H](CC(=O)O)NC(=O)[C@@H]1CCCN1)C(=O)N[C@@H](Cc1ccc(O)cc1)C(=O)N[C@@H](CC(N)=O)C(=O)N[C@@H](CCCN=C(N)N)C(N)=O [PDKPPYLPRPRPPRRIYNR] |  |  |  |  |  | MIC (Escherichia coli JW0013): 2.01 µM (≈ 4.8 µg/mL)

Now from value to molecule, other results behind:

MIC [1] [µM] | MIC [2] [µM] | MIC [3] | MIC (Pseudomonas aeruginosa) [µM] | MIC (Staphylococcus aureus) [µM] | SMILES | further results
 |  | 4 µM and 8 µM |  |  | CC[C@H](C)[C@H](NC(=O)[C@H](CCCN=C(N)N)NC(=O)[C@H](CCCN=C(N)N)NC(=O)[C@H](CC(C)C)NC(=O)[C@H](CCCN=C(N)N)NC(=O)[C@H](Cc1c[nH]c2ccccc12)NC(=O)[C@H](CCCN=C(N)N)NC(=O)[C@@H](NC(=O)[C@H](CCCN=C(N)N)NC(=O)[C@H](Cc1c[nH]c2ccccc12)NC(=O)[C@H](CCCN=C(N)N)NC(=O)[C@H](CC(C)C)NC(=O)[C@H](CCCN=C(N)N)NC(=O)[C@H](CCCN=C(N)N)NC(=O)[C@H](Cc1ccccc1)NC(=O)[C@@H](N)CCCN=C(N)N)[C@@H](C)O)C(N)=O [RFRRLRWRTRWRLRRI] | MIC [5]: 4 µM (≈ 9.53 µg/mL); MIC [6]: 4 µM (≈ 9.53 µg/mL); MIC (Escherichia coli UB1005): 2 µM (≈ 4.77 µg/mL); MIC [7]: 2 µM (≈ 4.77 µg/mL); MIC [8]: 4 µM and 8 µM
10.1 (≈ 30 µg/mL) | 5.03 (≈ 15 µg/mL) | 20.1 µM (≈ 60 µg/mL) |  |  | CC[C@H](C)[C@H](NC(=O)[C@H](CCC(N)=O)NC(=O)[C@H](CCCCN)NC(=O)[C@H](Cc1c[nH]c2ccccc12)NC(=O)[C@H](CC(C)C)NC(=O)[C@H](CCC(N)=O)NC(=O)[C@@H]1CCCN1C(=O)[C@H](CC(C)C)NC(=O)[C@H](CCCCN)NC(=O)[C@H](C)NC(=O)[C@H](CCC(=O)O)NC(=O)[C@H](CCCCN)NC(=O)[C@@H](NC(=O)CNC(=O)[C@@H](NC(=O)[C@@H](NC(=O)[C@@H](NC(=O)[C@@H](N)CO)[C@@H](C)CC)[C@@H](C)CC)[C@@H](C)O)[C@@H](C)O)C(=O)N[C@@H](C)C(=O)N[C@H]1CSSC[C@@H](C(=O)O)NC(=O)[C@H]([C@@H](C)O)NC(=O)[C@H](CC(N)=O)NC(=O)[C@H](Cc2ccc(O)cc2)NC(=O)[C@H](CC(C)C)NC(=O)[C@H](CCCN=C(N)N)NC1=O [SIITGTKEAKLPQLWKQIACRLYNTC] | MIC (Bacillus subtilis): ≥ 40.3 µM
 |  | 2 µM (≈ 3.37 µg/mL) | 4 (≈ 6.74 µg/mL) | 2 (≈ 3.37 µg/mL) | CC[C@H](C)[C@H](NC(=O)[C@H](CCCCN)NC(=O)[C@H](Cc1c[nH]c2ccccc12)NC(=O)[C@H](CCCCN)NC(=O)[C@@H](NC(=O)[C@H](CCCCN)NC(=O)[C@H](Cc1c[nH]c2ccccc12)NC(=O)[C@H](CCCCN)NC(=O)[C@@H](NC(=O)[C@H](CCCCN)NC(=O)[C@@H](N)Cc1c[nH]c2ccccc12)[C@@H](C)CC)[C@@H](C)CC)C(=O)N[C@@H](CCCCN)C(N)=O [WKIKWKIKWKIK] | MIC [5]: 2 µM (≈ 3.37 µg/mL); MIC [6]: 2 µM (≈ 3.37 µg/mL); MIC (Escherichia coli): 2 µM (≈ 3.37 µg/mL); MIC (Escherichia coli UB1005): 2 µM (≈ 3.37 µg/mL); MIC (Acinetobacter baumannii): 1.41 µM (≈ 2.38 µg/mL); MIC [8]: 2 µM (≈ 3.37 µg/mL); MIC [9]: 2 µM (≈ 3.37 µg/mL)
